# Source: patent US20110065672A1, “BISPHOSPHONATE-PROSTATIC ACID PHOSPHATASE INHIBITOR CONJUGATES TO TREAT PROSTATE CANCER BONE METASTASIS” (MOUNT SINAI SCHOOL OF MEDICINE OF NEW YORK UNIVERSITY, priority 2009, published 2011)
# How the values were obtained:
# [1] = test system: MC3T3 cells; test: Growth of MC3T3 pre-osteoblast cells, single line or co-culture, counted by hemacytometer; assay type: cell-based; details: tartrate 20 μM, 7 days, serum free medium
# Procedure: (§1) The human prostate cancer cell line VCaP (originally derived from a vertebral metastases) and the pre-osteoblast cell line MC3T3, were used to for in vitro studies with tartrate. Each cell culture was grown in serum free medium either in single line or co-culture, and treated with or without tartrate (20 μM) for 7 days. Cell numbers were counted by a hemacytometer and the secretion of PAP and bone alkaline phosphatase (ALP) was measured using ELISA.
# [2] = test system: VCaP cells; test: Growth of VCaP prostate cancer cells, single line or co-culture, counted by hemacytometer; assay type: cell-based, human; details: tartrate 20 μM, 7 days, serum free medium
# Procedure: as §1
# [3] = target: T1, prostatic acid phosphatase (PAP) (Homo sapiens, UniProt P15309); test: Secretion of PAP from MC3T3 and VCaP single line and co-cultures, ELISA; assay type: cell-based; details: tartrate 20 μM, 7 days
# T1 construct: endogenous in cells; host or cells: VCaP (human prostate cancer cell line); in A3 also MC3T3 pre-osteoblasts, alone or in co-culture
# T1 sequence (P15309 33-386): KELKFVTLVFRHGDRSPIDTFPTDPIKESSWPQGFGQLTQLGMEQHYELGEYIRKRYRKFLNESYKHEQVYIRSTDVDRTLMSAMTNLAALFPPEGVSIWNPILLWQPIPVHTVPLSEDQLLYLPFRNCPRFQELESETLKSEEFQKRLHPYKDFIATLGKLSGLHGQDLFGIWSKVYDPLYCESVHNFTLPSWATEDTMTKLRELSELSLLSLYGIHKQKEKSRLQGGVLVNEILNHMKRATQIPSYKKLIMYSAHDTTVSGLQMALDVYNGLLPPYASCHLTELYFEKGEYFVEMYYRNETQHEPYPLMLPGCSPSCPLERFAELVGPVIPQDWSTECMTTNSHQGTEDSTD
# Procedure: as §1
# [4] = test system: prostatic acid phosphatase (PAP); test: as above; assay type: cell-based, human; details: tartrate 20 μM, 7 days, MC3T3 cells (very low PAP levels)
# Procedure: as §1
# [5] = test system: bone alkaline phosphatase (ALP); test: Secretion of bone alkaline phosphatase (ALP), ELISA; assay type: cell-based; details: tartrate 20 μM, 7 days
# Procedure: as §1
# Secretion of bone alkaline phosphatase (ALP) by pre-osteoblast cells is correlated with pre-osteoblast differentiation into mature osteoblasts cells. Accordingly, ALP secretion was measured to indirectly determine whether the inhibition of PAP secretion by tartrate also served to attenuate differentiation events. […] This effect was not seen in the single line MC3T3 and VCaP cell cultures.
# [6] = test system: RAW cells; test: RAW pre-osteoclast cell growth in co-culture experiments, hemacytometer; assay type: cell-based; details: tartrate (2004) for 2 days
# Procedure: (§2) In order to determine the effects of prostatic acid phosphatase (PAP) on osteoclast differentiation and activity, a series of co-culture experiments were performed in which pre-osteoclast cells (RAW cells) were co-cultured with either PAP-positive (PAP^+), VCaP cells or PAP-negative (PAP^−) (PC3) human prostate cancer (PCa) cells. RAW cells were counted in a hemacytometer on day 5.
# (§3) VCaP (PAP^+) and PC3 (PAP^−) cells (5×10^4 each) were seeded on inserts in RPMI or DMEM medium with 10% FBS. Pre-osteoclast, PRAW cells (5×10^4) were plated on the bottom in 12 well plates. After 2 days, medium was changed to serum-free DMEM with 0.1% BSA+/− tartrate (2004) for 2 days. Mean number of multinucleated cells (hallmark of osteoclast differentiation) was determined on day 5 by multiple field counts in 200× objective view.
# [7] = test system: RAW cells; test: RAW cell differentiation, mean number of multinucleated cells; assay type: cell-based; details: tartrate (2004) for 2 days
# Procedure: as §2, §3
# [8] = test system: RAW (osteoclast) cells; test: Osteoclast bone-resorbing activity, pit formation on osteologic discs; assay type: cell-based; details: tartrate 20 μM, 7 days, RANKL and MCSF
# Procedure: The effect of PAP on osteoclast bone-resorbing activity was measured by assaying pit formation when osteoclasts were cultured on bone matrix (osteologic discs). RAW (osteoclast) cells (2×10^4 cells), PC3 (PAP^−) cells (2×10^4 cells), and VCaP (PAP^+) cells (3×10^4 cells) were plated, alone or in combination, on calcium hydroxyapatite-coated osteologic discs in DMEM medium with 10% FBS for 7 days+/−tartrate (20 μM). All cultures were treated with RANKL ([…]) and MCSF ([…]). On day 7, cells were washed and discs stained with von Kossa to visualize the calcium matrix and pits (which indicate bone resorption by the RAW osteoclast cells).
# [9] = target: T2, PAP (Homo sapiens, UniProt P15309); details: see U.S. Pat. No. 5,763,490; cited from earlier work
# T2 sequence (P15309 33-386): T1 sequence (P15309 33-386)
# [10] = target: T3, bone acid phosphatase (Homo sapiens, UniProt P13686); details: cited from earlier work
# T3 sequence (P13686 22-325): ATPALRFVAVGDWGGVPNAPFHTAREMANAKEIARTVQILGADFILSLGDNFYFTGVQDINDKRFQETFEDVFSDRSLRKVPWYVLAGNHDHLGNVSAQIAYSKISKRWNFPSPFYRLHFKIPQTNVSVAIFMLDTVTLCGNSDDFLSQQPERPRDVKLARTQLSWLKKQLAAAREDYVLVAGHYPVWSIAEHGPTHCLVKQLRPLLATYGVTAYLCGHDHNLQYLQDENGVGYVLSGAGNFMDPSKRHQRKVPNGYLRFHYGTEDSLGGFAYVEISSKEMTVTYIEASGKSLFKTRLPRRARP
# [11] = target: T1, prostatic acid phosphatase (PAP); test: PAP secretion in VCaP cell culture with conjugates, ELISA; assay type: cell-based; details: overnight; for inhibition of PAP secretion: 0.1 mM or 1.0 mM in VCaP cell culture medium
# Procedure: Either the glyceric acid conjugate (i.e., N-Alendronyl-D-Glyceramide) (example 1, 0.1 mM or 1.0 mM) or the tartaric acid conjugate (i.e., N-Alendronyl-L-Tartaric Acid Monamide) (example 2, 0.1 mM or 1.0 mM) was added to VCaP cell culture medium, and incubated overnight. PAP secretion was measured using an ELISA assay.
compound,measurement,setting,value
"O=C(O)[C@H](O)[C@@H](O)C(=O)O [tartrate, L-tartrate]",effect on growth of MC3T3 cells co-cultured with VCaP cells,"[1]; co-culture with VCaP, p<0.01",significantly inhibited
same,effect on growth of MC3T3 single line cell culture,[1]; single line,did not have a significant effect
same,effect on VCaP cell growth when co-cultured with MC3T3 cells,[2]; co-culture with MC3T3,did not have a significant effect
same,effect on growth of VCaP single line cell culture,[2]; single line,did not have a significant effect
same,prostatic acid phosphatase secretion by VCaP cells grown alone,[3]; VCaP alone,significantly inhibited
same,prostatic acid phosphatase secretion by VCaP cells in co-culture with MC3T3 cells,[3]; co-culture with MC3T3,significantly inhibited
same,PAP secretion by MC3T3 cells,[4],did not inhibit
same,bone alkaline phosphatase secretion by MC3T3 cells in co-culture with VCaP cells,[5]; co-culture with VCaP,significantly inhibited
same,"bone alkaline phosphatase secretion, single line MC3T3 cell culture",[5]; single line MC3T3,not seen
same,"bone alkaline phosphatase secretion, single line VCaP cell culture",[5]; single line VCaP,not seen
same,effect on growth of RAW cells co-cultured with PC3 cells,"[6]; counted day 5, co-culture with PC3 (PAP-)",did not have a significant effect
same,effect on growth of RAW cells co-cultured with VCaP cells,"[6]; counted day 5, co-culture with VCaP (PAP+), p<0.01",significantly inhibited
same,effect on growth of RAW cells alone,"[6]; serum-free DMEM with 0.1% BSA, counted day 5, RAW alone",did not have a significant effect
same,effect on differentiation of RAW cells alone,"[7]; multinucleated cells on day 5, RAW alone",did not have a significant effect
same,effect on differentiation of RAW cells co-cultured with PC3 cells,"[7]; multinucleated cells on day 5, co-culture with PC3",did not have a significant effect
same,effect on RAW cell differentiation when co-cultured with VCaP,"[7]; multinucleated cells on day 5, co-culture with VCaP, p<0.01",significantly inhibited
same,"decrease of pit formation, RAW cells co-cultured with VCaP",[8],50%
same,"effect on number of pits, RAW cells co-cultured with PC3 cells",[8],no significant effect
same,inhibition of PAP,[9],inhibited
same,inhibition of bone acid phosphatase,[10],is not
"O=C(O)C(O)[C@H](O)C(=O)NCCCC(O)(P(=O)(O)O)P(=O)(O)O (stereo partly drawn) [example 2, N-Alendronyl-L-Tartaric Acid Monamide]",inhibition of PAP secretion,[11],inhibit PAP secretion
"O=C(NCCCC(O)(P(=O)(O)O)P(=O)(O)O)[C@H](O)CO [example 1, N-Alendronyl-D-Glyceramide]",inhibition of PAP secretion,[11],significantly inhibited
same,effectiveness as a PAP inhibitor compared with tartrate alone,[11]; VCaP cell culture medium,as effective as tartrate alone
